According to patent US8192962B2, “Processes for detecting toxic substances” (Daikin Industries, Ltd., priority 2001, dated 2012):

System: Metabolism protein genes
Assay: DNA chip mRNA expression in yeast, metabolism protein genes (Table 7)
Format: cell-based, Saccharomyces cerevisiae S288C
In short: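 Chemical exposure: 2 h, log-phase S. cerevisiae S288C, YPD, 25° C., dose set to inhibit growth without death. Profiling: mRNA labeled by reverse transcription with Cy3- or Cy5-dUTP, hybridized to whole-genome array. Output: fluorescence ratio against untreated culture.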

COc1cc(CNC(=O)CCCCC=CC(C)C)ccc1O [(12), 8-methyl-N-vanillyl-6-nonenamide]
1.2: The level of expressed mRNA in the presence of chemical substance/The level of expressed mRNA in the absence of chemical substance (yeast gene YAL038W) | The level of expressed mRNA in the presence of chemical substance/The level of expressed mRNA in the absence of chemical substance (yeast gene YBR183W) | The level of expressed mRNA in the presence of chemical substance/The level of expressed mRNA in the absence of chemical substance (yeast gene YFL030W) | The level of expressed mRNA in the presence of chemical substance/The level of expressed mRNA in the absence of chemical substance (yeast gene YHR176W) | The level of expressed mRNA in the presence of chemical substance/The level of expressed mRNA in the absence of chemical substance (yeast gene YIR036C)
0.5: level of expressed mRNA in the presence/in the absence of chemical substance (yeast gene YCR034W) | level of expressed mRNA in the presence/in the absence of chemical substance (yeast gene YDR123C) | level of expressed mRNA in the presence/in the absence of chemical substance (yeast gene YHR210C)
1.5: The level of expressed mRNA in the presence of chemical substance/The level of expressed mRNA in the absence of chemical substance (yeast gene YGR037C) | The level of expressed mRNA in the presence of chemical substance/The level of expressed mRNA in the absence of chemical substance (yeast gene YGR256W) | The level of expressed mRNA in the presence of chemical substance/The level of expressed mRNA in the absence of chemical substance (yeast gene YHR174W) | The level of expressed mRNA in the presence of chemical substance/The level of expressed mRNA in the absence of chemical substance (yeast gene YIL045W)
1.7: The level of expressed mRNA in the presence of chemical substance/The level of expressed mRNA in the absence of chemical substance (yeast gene YBR256C) | The level of expressed mRNA in the presence of chemical substance/The level of expressed mRNA in the absence of chemical substance (yeast gene YCL009C) | The level of expressed mRNA in the presence of chemical substance/The level of expressed mRNA in the absence of chemical substance (yeast gene YER026C) | The level of expressed mRNA in the presence of chemical substance/The level of expressed mRNA in the absence of chemical substance (yeast gene YER053C) | The level of expressed mRNA in the presence of chemical substance/The level of expressed mRNA in the absence of chemical substance (yeast gene YFR047C) | The level of expressed mRNA in the presence of chemical substance/The level of expressed mRNA in the absence of chemical substance (yeast gene YJL068C)
0.4: The level of expressed mRNA in the presence of chemical substance/The level of expressed mRNA in the absence of chemical substance (yeast gene YDR380W) | level of expressed mRNA in the presence/in the absence of chemical substance (yeast gene YDR400W)
1.3: The level of expressed mRNA in the presence of chemical substance/The level of expressed mRNA in the absence of chemical substance (yeast gene YBR029C) | The level of expressed mRNA in the presence of chemical substance/The level of expressed mRNA in the absence of chemical substance (yeast gene YCR098C) | level of expressed mRNA in the presence/in the absence of chemical substance (yeast gene YDR178W) | The level of expressed mRNA in the presence of chemical substance/The level of expressed mRNA in the absence of chemical substance (yeast gene YDR502C) | level of expressed mRNA in the presence/in the absence of chemical substance (yeast gene YER120W) | The level of expressed mRNA in the presence of chemical substance/The level of expressed mRNA in the absence of chemical substance (yeast gene YER178W) | The level of expressed mRNA in the presence of chemical substance/The level of expressed mRNA in the absence of chemical substance (yeast gene YGL209W) | The level of expressed mRNA in the presence of chemical substance/The level of expressed mRNA in the absence of chemical substance (yeast gene YGR282C) | The level of expressed mRNA in the presence of chemical substance/The level of expressed mRNA in the absence of chemical substance (yeast gene YJL031C) | level of expressed mRNA in the presence/in the absence of chemical substance (yeast gene YJL167W)
1.1: The level of expressed mRNA in the presence of chemical substance/The level of expressed mRNA in the absence of chemical substance (yeast gene YAL012W) | level of expressed mRNA in the presence/in the absence of chemical substance (yeast gene YBR011C) | The level of expressed mRNA in the presence of chemical substance/The level of expressed mRNA in the absence of chemical substance (yeast gene YDR516C) | level of expressed mRNA in the presence/in the absence of chemical substance (yeast gene YEL063C) | level of expressed mRNA in the presence/in the absence of chemical substance (yeast gene YGL205W) | The level of expressed mRNA in the presence of chemical substance/The level of expressed mRNA in the absence of chemical substance (yeast gene YIL107C) | The level of expressed mRNA in the presence of chemical substance/The level of expressed mRNA in the absence of chemical substance (yeast gene YIL154C) | The level of expressed mRNA in the presence of chemical substance/The level of expressed mRNA in the absence of chemical substance (yeast gene YJL172W) | The level of expressed mRNA in the presence of chemical substance/The level of expressed mRNA in the absence of chemical substance (yeast gene YJL219W)
1.4: level of expressed mRNA in the presence/in the absence of chemical substance (yeast gene YDR050C) | level of expressed mRNA in the presence/in the absence of chemical substance (yeast gene YDR345C) | The level of expressed mRNA in the presence of chemical substance/The level of expressed mRNA in the absence of chemical substance (yeast gene YIL155C) | The level of expressed mRNA in the presence of chemical substance/The level of expressed mRNA in the absence of chemical substance (yeast gene YIR034C) | The level of expressed mRNA in the presence of chemical substance/The level of expressed mRNA in the absence of chemical substance (yeast gene YJR137C)
1.6: The level of expressed mRNA in the presence of chemical substance/The level of expressed mRNA in the absence of chemical substance (yeast gene YCL018W)
1.0: level of expressed mRNA in the presence/in the absence of chemical substance (yeast gene YER081W) | The level of expressed mRNA in the presence of chemical substance/The level of expressed mRNA in the absence of chemical substance (yeast gene YFL031W) | The level of expressed mRNA in the presence of chemical substance/The level of expressed mRNA in the absence of chemical substance (yeast gene YFL056C) | The level of expressed mRNA in the presence of chemical substance/The level of expressed mRNA in the absence of chemical substance (yeast gene YFL057C) | level of expressed mRNA in the presence/in the absence of chemical substance (yeast gene YGR204W) | The level of expressed mRNA in the presence of chemical substance/The level of expressed mRNA in the absence of chemical substance (yeast gene YJL099W) | level of expressed mRNA in the presence/in the absence of chemical substance (yeast gene YJL216C) | level of expressed mRNA in the presence/in the absence of chemical substance (yeast gene YJR077C)
0.6: level of expressed mRNA in the presence/in the absence of chemical substance (yeast gene YDR408C) | level of expressed mRNA in the presence/in the absence of chemical substance (yeast gene YGL012W) | The level of expressed mRNA in the presence of chemical substance/The level of expressed mRNA in the absence of chemical substance (yeast gene YGL126W) | The level of expressed mRNA in the presence of chemical substance/The level of expressed mRNA in the absence of chemical substance (yeast gene YHR137W) | level of expressed mRNA in the presence/in the absence of chemical substance (yeast gene YJL121C)
0.7: The level of expressed mRNA in the presence of chemical substance/The level of expressed mRNA in the absence of chemical substance (yeast gene YCL064C) | The level of expressed mRNA in the presence of chemical substance/The level of expressed mRNA in the absence of chemical substance (yeast gene YDR019C) | The level of expressed mRNA in the presence of chemical substance/The level of expressed mRNA in the absence of chemical substance (yeast gene YGL022W) | level of expressed mRNA in the presence/in the absence of chemical substance (yeast gene YGR191W) | level of expressed mRNA in the presence/in the absence of chemical substance (yeast gene YHR123W) | The level of expressed mRNA in the presence of chemical substance/The level of expressed mRNA in the absence of chemical substance (yeast gene YIL167W) | The level of expressed mRNA in the presence of chemical substance/The level of expressed mRNA in the absence of chemical substance (yeast gene YJL088W)
2.8: The level of expressed mRNA in the presence of chemical substance/The level of expressed mRNA in the absence of chemical substance (yeast gene YDL174C)
0.8: level of expressed mRNA in the presence/in the absence of chemical substance (yeast gene YBR003W) | level of expressed mRNA in the presence/in the absence of chemical substance (yeast gene YBR020W) | The level of expressed mRNA in the presence of chemical substance/The level of expressed mRNA in the absence of chemical substance (yeast gene YBR023C) | level of expressed mRNA in the presence/in the absence of chemical substance (yeast gene YCR010C) | level of expressed mRNA in the presence/in the absence of chemical substance (yeast gene YDR073W) | level of expressed mRNA in the presence/in the absence of chemical substance (yeast gene YDR483W) | The level of expressed mRNA in the presence of chemical substance/The level of expressed mRNA in the absence of chemical substance (yeast gene YER069W) | The level of expressed mRNA in the presence of chemical substance/The level of expressed mRNA in the absence of chemical substance (yeast gene YGL248W) | level of expressed mRNA in the presence/in the absence of chemical substance (yeast gene YGR096W) | The level of expressed mRNA in the presence of chemical substance/The level of expressed mRNA in the absence of chemical substance (yeast gene YGR194C)
0.9: The level of expressed mRNA in the presence of chemical substance/The level of expressed mRNA in the absence of chemical substance (yeast gene YBR222C) | The level of expressed mRNA in the presence of chemical substance/The level of expressed mRNA in the absence of chemical substance (yeast gene YCR048W) | level of expressed mRNA in the presence/in the absence of chemical substance (yeast gene YDR277C) | level of expressed mRNA in the presence/in the absence of chemical substance (yeast gene YDR284C) | The level of expressed mRNA in the presence of chemical substance/The level of expressed mRNA in the absence of chemical substance (yeast gene YDR497C) | level of expressed mRNA in the presence/in the absence of chemical substance (yeast gene YER015W) | The level of expressed mRNA in the presence of chemical substance/The level of expressed mRNA in the absence of chemical substance (yeast gene YER096W) | level of expressed mRNA in the presence/in the absence of chemical substance (yeast gene YFL011W) | level of expressed mRNA in the presence/in the absence of chemical substance (yeast gene YGL115W) | The level of expressed mRNA in the presence of chemical substance/The level of expressed mRNA in the absence of chemical substance (yeast gene YGR055W) | level of expressed mRNA in the presence/in the absence of chemical substance (yeast gene YGR288W) | level of expressed mRNA in the presence/in the absence of chemical substance (yeast gene YHR025W) | The level of expressed mRNA in the presence of chemical substance/The level of expressed mRNA in the absence of chemical substance (yeast gene YHR111W) | level of expressed mRNA in the presence/in the absence of chemical substance (yeast gene YIL006W)
4.3: The level of expressed mRNA in the presence of chemical substance/The level of expressed mRNA in the absence of chemical substance (yeast gene YFL014W)
1.9: The level of expressed mRNA in the presence of chemical substance/The level of expressed mRNA in the absence of chemical substance (yeast gene YGR244C)
